Experimental data taken from patent publication US6355785B1, “Guanosine-rich oligonucleotide integrase inhibitors” (Aronex Pharmaceuticals, Inc., priority 1993, dated 2002).
Read-outs that look alike come from different tables or passages of the source.

Tests used:
[1] = set-up: species or system cynomolgus monkeys; details: cynomolgus monkey, in vivo
Procedure: Dosing. Twelve experimentally naive cynomolgus monkeys were assigned to four groups of three animals each. Prior to dosing, each animal was lightly sedated with a combination of ketamine (1 0 mg/kg) and diazepam (0.5 mg/kg), and a catheter was introduced into the femoral artery for recording central arterial pressure. Monkeys were given a single intravenous infusion of 5, 20, or 50 mg AR177/kg or saline over ten minutes through a cephalic vein catheter using a Harvard infusion pump. Arterial blood samples were drawn at −10, +10, +20, +40, +60 and +120 minutes relative to the initiation of infusion into EDTA-containing tubes for hematology, complement factors, coagulation assay, serum chemistry, and plasma AR177 determination. At 24 hours post-infusion, blood was drawn via the femoral vein into EDTA-containing tubes for these same parameters. The concentration of AR177 in dosing solutions was confirmed post experiment by absorbance at 280 nm on a spectrophotometer. For the determination of AR177 by HPLC, the plasma fraction was obtained by low speed centrifugation of blood, and stored at −20° C. until used. Electrocardiograms (ECGs), central pressure, and heart rate were recorded continuously for 120 minutes following the initiation of doing. Table E-1 summarizes the study design. […]
Complement factors. The complement split product Bb and total hemolytic complement CH50 were determined. […]

[2] = set-up: species or system cynomolgus monkeys; details: cynomolgus monkey, in vivo; for AR177 plasma (CMAX): iv
Procedure: Dosing. Twelve experimentally naive cynomolgus monkeys were assigned to four groups of three animals each. Prior to dosing, each animal was lightly sedated with a combination of ketamine (1 0 mg/kg) and diazepam (0.5 mg/kg), and a catheter was introduced into the femoral artery for recording central arterial pressure. Monkeys were given a single intravenous infusion of 5, 20, or 50 mg AR177/kg or saline over ten minutes through a cephalic vein catheter using a Harvard infusion pump. Arterial blood samples were drawn at −10, +10, +20, +40, +60 and +120 minutes relative to the initiation of infusion into EDTA-containing tubes for hematology, complement factors, coagulation assay, serum chemistry, and plasma AR177 determination. At 24 hours post-infusion, blood was drawn via the femoral vein into EDTA-containing tubes for these same parameters. The concentration of AR177 in dosing solutions was confirmed post experiment by absorbance at 280 nm on a spectrophotometer. For the determination of AR177 by HPLC, the plasma fraction was obtained by low speed centrifugation of blood, and stored at −20° C. until used. Electrocardiograms (ECGs), central pressure, and heart rate were recorded continuously for 120 minutes following the initiation of doing. Table E-1 summarizes the study design. The animals were observed twice daily pharmacotoxic signs and general health beginning two days before dosing and for seven days following dosing. The monkeys were not necropsied at the end of the study.
HPLC analysis of AR177 plasma concentration. AR177 was assayed in the plasma using an anion-exchange HPLC method on a Waters HPLC system with a 626 pump, 996 photodiode array detector, 717 autosampler and Millennium system software controlled by an NEC Image 466 computer. Buffer A consisted of 0.1 M Tris base, 20% methanol, pH 12, and Buffer B consisted of 0.1 M Tris base, 1.0 M NaBr, pH 12. The anion-exchange column (Gen-Pak Fax column) was equilibrated at 80% buffer A/20% buffer B for 30 minutes before each HPLC run. Fifty microliters of 0.2˜filtered, neat plasma were analyzed per run. The elusion conditions were: a) five-minute isoaatic run at 80% A/20% B. during which the majority of the plasma proteins eluted, b) 25-minute linear gradient to 30% A/70% B during which AR177 elutes, c) five-minute Socratic run at 30% A/70% B. d) one-minute linear gradient to 100% B. e) two-minute run at 100% B for column clean-up, and fl two-minute linear gradient to 70% A/30% B for the step in the HPLC clean-up. The high pH (12) of the elusion buffers was necessary to dissociate AR177 from tissue constituents, which bind AR177 tightly around physiological pH. AR177 is completely stable at pH 12. This method can clearly distinguish between the full length AR177 and n-1, n-2, etc. species, which are potential metabolic products. The ultraviolet detection wavelength was 260 nm. The flow rate was 0.5 mL/minute in all steps. Column clean up between runs was performed by a 500 pL bolus injection of 0.1 M Tris base, 2 M NaCl, pH 10.5, followed by: a) ten-minute linear gradient to 60% A/40% B. b) one-minute linear gradient to 100% B. c) a three-minute isocratic run at 100% B and d) one-minute linear gradient to 80% A/20% B.
A standard curve was generated by spiking AR177 into cynomolgus monkey plasma in order to achieve concentrations of 0.04 to 128 μ/mL. The plasma standards and unspiked plasma (control) were run on the anion-exchange HPLC column using e above conditions. The Waters Millennium software was used to determine the area under the peak for each AR177 standard at 260 nm. The HPLC peak area versus AR177 concentration was plotted using Cricket Graph III 1.5.1 software. There were one to three HPLC replicate runs per AR177 standard. The limit of quantitation was 25 ng/mL (50 pL injection), whereas the limit of detection was 5 ng/mL (50 pL injection). […]

[3] = system: RSV (A2)
[4] = system: Junin virus
[5] = system: HIV-1SKI; experiment: Analysis of replicated viral DNA (Hirt fractions), CEM-SS cells; assay type: cell-based
Procedure: Analysis of viral replication. CEM-SS cells (2×10^7) were infected with HIV-1SKI (MOI of I) for 45 minutes at 37 ° C. with gentle mixing. Following virus attachment, the cells were gently pelleted, washed twice and resuspended in complete tissue culture medium. The cells were then divided into aliquots, treated with various concentrations of drug and placed in T75 culture flasks. The cells were incubated at 37° C. for 18-20 hours and then harvested by centriguation. To extract nucleic acids for analysis of HIV-1 integration low- and high-molecular weight DNA were prepared from HIV-1 infected cells (untreated or treated with increasing concentrations of drug) according to the protocol originally described by Hirt (Hirt, B. J., J. Mol. Biol. 26:365-369 (1967)) and modified by Gowda et al., Gowda, et al., J. Immunol. 142:773-780 (1989).
DNA (300 ng), obtained from the low-molecular weight Hirt fractions, was used as the template in PCR analysis undergoing a 30 cycle amplification reaction using the conditions described by Steinkasserer et al. (Steinkasserer, et al., J. Virol. 69:814-824 (1995)). […] PCR products were separated by agarose gel electrophoresis and visualized by ethidium bromide staining.

[6] = system: Punta Toro virus
[7] = system: Influenza A (H3N2)
[8] = human, up to 236 ug/mL

5′-gtggtgggtgggtgggt-3′ (GTGGTGGGTGGGTGGGT; phosphorothioate termini, further chemistry not given here) [T30177]
CH50 levels [1]: small and transient decreases | change in CHX (CH50) levels [1]: −25% | initial plasma half-life [2]: 20 to 30 min | initial volume of distribution (Vd) of the three doses [2]: 200 to 248 mL | metabolites in plasma [2]: No metabolites | terminal plasma half-life [2]: approximately 24 hours | Vd ([2]; 5 mg/kg): 247.6 ± 21.4 mL | Vd ([2]; 20 mg/kg): 184.5 ± 14.3 mL | Vd ([2]; 50 mg/kg): 200.7 ± 56.4 mL | AR177 plasma (CMAX) ([2]; 5 mg/kg): 83.2 ± 7.2 µg/mL | AR177 plasma (CMAX) ([2]; 20 mg/kg): 397.8 ± 30.8 µg/mL | AR177 plasma (CMAX) ([2]; 50 mg/kg): 804.7 ± 226.3 µg/mL | IC50 virus-induced cytopathogenicity ([3]; RSV (A2)): >200 µg/mL | MCC minimum concentration altering normal cell morphology ([3]; RSV (A2) assay): >400 μg/mL | IC50 virus-induced cytopathogenicity ([4]; Junin virus): >50 µg/mL | MCC minimum concentration altering normal cell morphology ([4]; Junin virus assay): >50 μg/mL

5′-gtggtgggtgggtgggt-3′ [T30177] (GTGGTGGGTGGGTGGGT; phosphorothioate termini, further chemistry not given here)
extent of viral replication (PCR of Hirt DNA) [5]: up to an including the production of 2-LTR circles | IC50 virus-induced cytopathogenicity ([6]; Punta Toro virus): >200 µg/mL | MCC minimum concentration altering normal cell morphology ([6]; Punta Toro virus assay): >200 μg/mL | IC50 virus-induced cytopathogenicity ([7]; Influenza A (H3N2)): >125 µg/mL | MCC minimum concentration altering normal cell morphology ([7]; Influenza A (H3N2) assay): >200 μg/mL | complement CH50 [8]: no effect
